# Measurements from publication PMC9080489, “Synthesis and biological evaluation of 2-aryl-benzimidazole derivatives of dehydroabietic acid as novel tubulin polymerization inhibitors” (RSC Advances, 2018).
# How the values were obtained:
# [1] = tested on: human normal hepatocyte cell line (QSG-7701); experiment: MTT cytotoxic assay, QSG-7701; type: cell-based; conditions: QSG7701, 48 h exposure
# Procedure: (§1) The in vitro antiproliferative activity of DAA derivatives (1–5, 6a–k, 7a–k) were evaluated by MTT assay against human hepatocarcinoma cell line (SMMC-7721), human breast cancer cell line (MDA-MB-231), human cervical carcinoma cell line (HeLa), mouse colon cancer cell line (CT-26) and human normal hepatocyte cell line (QSG-7701). Nocodazole was co-assayed as the positive control and DMEM culture medium containing 0.1% DMSO was used as negative control. The results of the tested compounds expressed as IC50 values (concentration required to inhibit tumor cell proliferation by 50%) were presented in Table 1.
# (§2) The human hepatocarcinoma cell line (SMMC-7721), human breast cancer cell line (MDA-MB-231), human cervical carcinoma cell line (HeLa), mouse colon cancer cell line (CT-26) and human normal hepatocyte cells (QSG-7701) used in this study were all obtained from Keygene Biotech., China. These cell lines were maintained in DMEM medium supplemented with 10% heat-inactivated fetal bovine serum in a humidified atmosphere of 5% CO2 at 37 °C.
# (§3) The in vitro cytotoxic activities of the benzimidazole derivatives of dehydroabietic acid were evaluated against tested cell lines via the MTT colorimetric method. Briefly, different tumor cells were grown in DMEM medium supplemented with 10% fetal bovine serum, penicillin (100 U mL^−1), and streptomycin (50 μg mL^−1). Cells were harvested at log phase of growth and seeded in 96-well plates (100 μL per well at a density of 2 × 10^5 cells mL^−1). After 24 h incubation at 37 °C and 5% CO2 to allow cell attachment, cultures were exposed to various concentrations of the isolated compounds for 48 h. Finally, MTT solution (2.5 mg mL^−1 in PBS) was added (40 μL per well). Plates were further incubated for 4 h at 37 °C, and the formazan crystals formed were dissolved by adding 150 μL per well of DMSO. Absorption at 570 nm was measured with an ELISA plate reader. The results were expressed as IC50 values with standard deviations, which was defined as the concentration at which 50% survival of cells was discerned. Nocodazole was co-assayed as positive control.
# SMMC-7721 cells [2] = experiment: Annexin V-FITC/PI dual staining assay (apoptosis); type: cell-based, human; conditions: highest concentration 2.0 μM, 24 h; control 10.12%
# Procedure: In order to investigate whether compound 6j could induce cell apoptosis, SMMC-7721 cells treated with different concentrations of compound 6j were subjected to Annexin V-FITC/propidium iodide (PI) dual staining followed by flow cytometry assay.
# Apoptosis was discriminated with the Annexin V-FITC/PI dual staining assay. SMMC-7721 cells were seeded at 1 × 10^5 cells per well in 10% fetal calf serum (FBS)-DMEM into six-well plates and treated with or without compound 6j for 24 h. The cells were detached with 0.25% trypsin, washed twice with ice-cold PBS and then resuspended in 500 μL of 1× binding buffer (0.1 M Hepes/NaOH (pH 7.4), 1.4 M NaCl, 25 mM CaCl2). The solution was transferred into 5 mL culture tubes, and 5 μL of Annexin V-FITC (BD, Pharmingen) and 5 μL of PI were added to each tube. The cells were gently vortexed, and incubated for 30 min at 25 °C in the dark. The analysis was performed on a flow cytometry (Becton-Dickinson FACSCalibur, New York, USA).
# SMMC-7721 cells [3] = experiment: JC-1 mitochondrial membrane potential assay; type: cell-based, human; conditions: 24 h, control 6.47%
# Source text: As the most important organelle, mitochondria play key roles not only on supplying metabolic energy in the form of ATP, but also on regulating the signal transmission during the apoptosis of cancer cells.[46] Besides, the mitochondrial dysfunction can be aroused under high ROS exposure, leading to the collapse of mitochondrial membrane potential (ΔΨm), which is a characteristic phenomenon of early apoptosis.[47] In order to further investigate the apoptosis-inducing effect of target compound 6j, mitochondrial membrane potential changes were detected using the fluorescent probe JC-1. As a lipophilic cationic dye, JC-1 can easily pass through the plasma membrane into cells and accumulates in actively respiring mitochondria. In control cells, JC-1 can form aggregates in mitochondrial matrix and present high red fluorescence. However, in apoptotic cells whose mitochondrial potential has collapsed, JC-1 exists in cytosol as a monomer which emits green fluorescence. SMMC-7721 cells treated with different concentrations (0, 0.1, 0.2, 0.5, 1.0 and 2.0 μM) of compound 6j for 24 h were stained with JC-1 and then subjected to flow cytometry.
# The JC-1 mitochondrial membrane potential assay kit (Keygene Biotech., China) was employed to measure mitochondrial depolarization in SMMC-7721 cells. Briefly, cells cultured in six-well plates after indicated treatments were incubated with an equal volume of JC-1 staining solution (5 μg mL^−1) at 37 °C for 20 min and rinsed twice with PBS. Mitochondrial membrane potentials were monitored by determining the relative amounts of dual emissions from mitochondrial JC-1 monomers or aggregates using flow cytometry (Becton-Dickinson FACSCalibur, New York, USA). Mitochondrial depolarization is indicated by an increase in the percentage of cells with low ΔΨm (green fluorescence, lower right quadrant) compared with cells with high ΔΨm (red fluorescence, upper right quadrant).
# [4] = tested on: human cervical carcinoma cell line (HeLa); experiment: MTT cytotoxic assay, HeLa; type: cell-based; conditions: MTT, 48 h exposure, read-out: IC50 HeLa
# Procedure: as §1, §2, §3
# SMMC-7721 cells [5] = experiment: ROS generation assay (DCFH-DA); type: cell-based, human; conditions: 0.2, 0.5, 1 and 2 μM, 24 h
# Procedure: Reactive oxygen species (ROS) are highly harmful elements to cells as they exert oxidative stress and finally cause cellular damage. Excessive ROS generation renders cells vulnerable to apoptosis.[39] To determine whether compound 6j triggers ROS generation in SMMC-7721 cells to induce apoptosis, the cells were treated with different concentrations (0, 0.2, 0.5, 1 and 2 μM) of compound 6j for 24 h, and the ROS generation was evaluated using the fluorescent probe 2,7-dichlorofluorescein diacetate (DCF-DA) by fluorescence microscopy. […] This phenomenon implied that the increment of ROS might play an important role as an early mediator in compound 6j-induced apoptosis.
# ROS generation assay was performed by using the reactive oxygen species assay kit (Beyotime Biotech., China). Intracellular ROS generation was tested through dichlorodihydro fluorescein diacetate (DCFH-DA) assay. DCFH-DA is taken up by SMMC-7721 cells, and then activated by esterase-mediated cleavage of acetate to form dichlorodihydro fluorescein (DCFH), which is trapped in the cells. DCFH is converted to fluorescein DCF in the presence of ROS. SMMC-7721 cells were seeded in six-well plates and incubated with different concentrations of compound 6j for 24 h. […] Immediately after light exposure, cell images were acquired through an inverted fluorescence microscope (Olympus 1X71 Inverted System Microscope, Olympus, Japan).
smiles,measurement,setting,value
"COC(=O)[C@]1(C)CCC[C@]2(C)c3cc(Br)c4nc(-c5ccc6[nH]ccc6c5)[nH]c4c3CCC12 (stereo partly drawn) [Compound 6j, Methyl 2′-(1H-indol-5-yl)-12-bromo-13,14-imidazolyl-deisopropyl-dehydroabietate]",IC50,[1],5.82 ± 0.38 µM
same,percentage of early and late apoptotic cells,SMMC-7721 cells [2],80.08%
same,percentage of cells with low ΔΨm (lower right quadrant),SMMC-7721 cells [3]; 0.1 μM,11.35%
same,percentage of cells with low ΔΨm (lower right quadrant),SMMC-7721 cells [3]; 0.2 μM,15.66%
same,percentage of cells with low ΔΨm (lower right quadrant),SMMC-7721 cells [3]; 0.5 μM,20.16%
same,percentage of cells with low ΔΨm (lower right quadrant),SMMC-7721 cells [3]; 1.0 μM,31.30%
same,percentage of cells with low ΔΨm (lower right quadrant),SMMC-7721 cells [3]; 2.0 μM,53.12%
same,IC50,[4],0.23 ± 0.05 µM
same,ROS generation (DCF green fluorescence),SMMC-7721 cells [5],significantly induced ROS generation
